# Where two headings read alike, the source gives them in different places.
# Legend:
# [1] = system: LPS-induced RAW264.7 cells; test: LPS-induced RAW264.7 cellular inflammation model, ELISA of inflammatory mediators; type: cell-based; conditions: Mus musculus, LPS-stimulated RAW264.7
# Procedure: RAW264.7 cells in logarithmic growth phase were seeded at 100 μL per well in a 96-well plate and cultured at 37° C. and 5% CO2 for 24 hours. The supernatant was aspirated and discarded. 100 μL of medium containing synephrine at an appropriate concentration was added to each well for pretreatment for 1 h, followed by the addition of LPS-containing medium. The cells were then co-incubated with the test substance for 24 hours.
# Based on the CCK-8 assay results, RAW264.7 cells in logarithmic growth phase were seeded in 96-well plates and divided into the control group, LPS group, LPS+SYN group, and LPS+SYN-DPI group. A cellular inflammation model was established. After culturing for 24 h, the supernatant from each well was collected and centrifuged at 3500 rpm for 10 min. The supernatant was collected and the subsequent procedures were strictly performed according to the ELISA kit instructions. The absorbance was measured at 450 nm using a microplate reader, and the contents of interleukin (IL)-1B, IL-6, tumor necrosis factor (TNF)-α, and nitric oxide (NO) were calculated.
# [2] = system: LPS-induced ALI model in rats; test: Lung wet-to-dry weight ratio in LPS-induced rat ALI model; type: in vivo; conditions: SYN 9 mg/kg gavage; SYN-DPI 4.5-18 mg/kg inhalation; 6 h after administration
# Procedure: (§1) Male SD rats were acclimatized for one week, and an ALI model in rats was established using tracheal instillation of LPS. The specific modeling steps were as follows: the rats were first anesthetized with isoflurane, then the rats were fixed in a supine position to facilitate intratracheal administration to the lungs. LPS (8 mg/kg) was nebulized into the alveoli using a microsprayer. The microsprayer was then removed, the animal was placed in a vertical position, and gently rotated for 30 seconds to ensure even distribution of LPS throughout the lungs.
# (§2) Referring to relevant literature on synephrine, the maximum human dose of synephrine is 100 mg. Based on the clinically equivalent dose, the dose administered to the rats via gavage was 9 mg/kg, and the low-dose inhalation group was 4.5 mg/kg.
# After instillation of the left lung of the rats, the left and right lungs were collected, washed with physiological saline, and dried. The lower lobe of the left lung was used to determine the wet-to-dry weight ratio of the rat lung tissue. […]
# The lower lobe of the left lung of the rat was collected, surface blood was removed, surface moisture was wiped off, and the lobe was weighed. The wet weight was recorded. The lobe was then dried in a 60° C. oven for 24 hours, and the dry weight was recorded. The degree of pulmonary edema was evaluated by calculating the lung wet/dry weight ratio. […]
# [3] = system: LPS-induced ALI model in rats; test: Serum inflammatory cytokine levels (ELISA) in LPS-induced rat ALI model; type: in vivo; conditions: P<0.0001; 6 h after administration
# Procedure: as §1, §2
# Six hours after drug administration, rats were anesthetized by intraperitoneal injection of sodium pentobarbital. […]
# Rat serum was collected, and the levels of TNF-α, IL-6, IL-8, IL-1β, and IL-1α were measured separately according to the rat ELISA kit instructions. The OD value was measured at 450 nm using a microplate reader. A standard curve was plotted with the concentrations of TNF-α, IL-8, IL-6, IL-1β, and IL-1α standards on the x-axis and the absorbance values on the y-axis. The concentrations of TNF-α, IL-6, IL-8, IL-1β, and IL-1α in serum were calculated based on the standard curve.
# [4] = Pharmacokinetic study in rats, plasma synephrine by LC-MS/MS; type: in vivo, rat; conditions: for Cmax: rat plasma
# Procedure: SPF-grade male SD rats, weighing 180-220 g, were housed under identical experimental conditions: temperature (22±1)° C., relative humidity (55±5) %, and a 12-hour light/dark cycle. They had free access to food and water and underwent a one-week acclimatization period before the experiment.
# Column: Hypersil GOLD C8 (100 mm×2.1 mm; 3 μm); Mobile phase: Phase A: 0.1% formic acid aqueous solution, Phase B: acetonitrile; Flow rate: 0.3 mL/min; Column temperature: 40° C.; Injection volume: 2 μL; Gradient elution program: 0-1 min, 5% B; 1-4 min, 5%-90% B; 4-5 min, 90%-5% B.
# Mass spectrometry was performed in electrospray ionization (ESI) positive ion scanning mode, using multiple reaction monitoring (MRM) detection mode. The collision gas was high-purity nitrogen; capillary voltage: 3.5 kV; nebulizer pressure: 45 psi; desiccator temperature: 300° C.; drying gas flow rate: 5 L/min (N2); sheath gas temperature: 250° C.; sheath gas flow rate: 11 L/min (N2).
# Experimental animals were randomly divided into three groups: (1) tail vein injection group, (2) pulmonary inhalation group, and (3) gavage group, with 5 animals in each group. Animals were fasted for 12 h before administration but had free access to water.
# Rats were fasted for 12 hours before the experiment but were allowed free access to water. The rats were weighed to calculate the dosage and numbered. After administration, 0.2 mL of blood was collected from the orbital vein at time points of 2 min, 5 min, 10 min, 15 min, 30 min, 1 h, 2 h, 3 h, 4 h, and 6 h. The blood samples were placed in an EP tube containing heparin sodium and were centrifuged at 3500 rpm for 15 min. The supernatant plasma was separated and stored at −80° C. freezer.
# 190 μL of a rat plasma sample was accurately pipetted into an EP tube. Then, 10 μL of an internal standard solution was added, and the sample was vortexed for 60 s. Next, 400 μL of acetonitrile was added, and the sample was vortexed for 60 s to precipitate proteins. The sample was then centrifuged at 10000 rpm for 15 mins, and the supernatant was passed through a 0.22 μm microporous filter membrane. Finally, the filtered sample was placed in a glass insert for LC-MS/MS analysis.
# [5] = Hygroscopicity by dynamic vapor sorption (DVS); type: physicochemical
# Procedure: The hygroscopicity of synephrine API and DPI was analyzed using a dynamic vapor sorption (DVS) analyzer. The experimental temperature was set to room temperature (25° C.), the carrier gas was nitrogen, and the total gas flow rate was 200 mL/min. Samples were weighed and placed on the balance tray of the DVS analyzer. The relative humidity (RH) change program was set as required, and the humidity equilibrium time was also set.
# [6] = Solubility of synephrine API in different solvents by HPLC; type: physicochemical
# Procedure: Column: Agilent C18 (250 mm×4.6 mm, 5 μm) column; mobile phase: 0.1% formic acid (A)-acetonitrile (B); detection wavelength: 273 nm; flow rate: 1 mL/min; column temperature: 30° C.; injection volume: 10 μL; isocratic elution: 1 min to 10 min; 97% A.
# Excess synephrine API was weighed and placed in an EP tube. Then, 1.00 mL of each of the following solutions was added: water, anhydrous ethanol, isopropanol, ethyl acetate, n-butanol, n-octanol, acetonitrile, and n-hexane. The mixture was sonicated (300 W, 40 kHz) until no further dissolution occurred. The tube was then centrifuged at 6000 r min^−1 for 15 min, filtered through a 0.22 μm microporous membrane, and the filtrate was diluted with methanol and analyzed under liquid chromatography conditions. The solubility of synephrine in different solvents was calculated.
# [7] = system: LPS-induced ALI model in rats; test: HE and Masson staining of lung tissue in LPS-induced rat ALI model; type: in vivo
# Procedure: as §1, §2
# Lung tissue fixed in 4% paraformaldehyde was dehydrated, routinely embedded in paraffin, and prepared into 5 μm sections. After dewaxing, the sections were routinely stained with HE, dehydrated, mounted, and observed under a microscope to examine the structure and morphological characteristics of the rat lung tissue in each group.
# The sections were routinely dewaxed to water. Hydrophobic zones were drawn, and Bouin's solution was added dropwise. The sections were then covered and incubated at 37° C. After incubation, they were rinsed with running water until the yellow color disappeared. […]
# [8] = In vitro pulmonary deposition, next-generation pharmaceutical impactor (NGI); type: physicochemical; conditions: 75 L/min, 3.2 s, 10 mg capsules
# Source text: The in vitro pulmonary deposition of synephrine DPI samples was investigated using the next-generation pharmaceutical impactor (NGI). The various components of the instrument were connected sequentially, including the NGI device, an adapter, an artificial throat, a pre-separator, and a collection tray. After installation, the airtightness and uniformity of the device were checked. The gas flow rate was 75 L/min. At this gas flow rate, the cutoff values Da of each stage of the collection tray were as follows: S1=7.145 μm, S2=3.971 μm, S3=2.522 μm, S4=1.495 μm, S5=0.835 μm, S6=0.481 μm, S7=0.293 μm, and the micro-orifice collector (MOC)=0.104 μm.
# The specific method was as follows: 10 mg synephrine micropowder and API were added to No. 3 hydroxypropyl methylcellulose capsules, respectively, and then loaded into a single-capsule inhalation device. After connecting to an NGI, the measurement was performed. Five capsules were inhaled each time. The inhalation flow rate was 75 L/min, and the inhalation duration was 3.2 s. Drug powder deposited at each stage of the NGI was collected using ultrapure water. The synephrine content was determined under UV conditions, and the FPF and respirable fraction (RF) were calculated.
# [9] = system: LPS-induced ALI model in rats; test: Total protein content in BALF (BCA assay) of ALI rats; type: in vivo, rat; conditions: 6 h after administration
# Procedure: as §1, §2
# After blood collection, the rats were placed in a supine position on the operating table until their hearts stopped beating. […]
# This study used the bicinchoninic acid (BCA) assay to determine the total protein content in BALF. The tissue weight was accurately measured, and physiological saline was added according to the weight-to-volume ratio. […] The test solution was added sequentially according to the protein quantification kit instructions. The absorbance was measured at 562 nm using a microplate reader, and the protein concentration in BALF was calculated.
smiles,measurement,setting,value
"CNCC(O)c1ccc(O)cc1 (stereo not drawn) [SYN, Synephrine]",inhibition at 200 µM,"[1]; 200 μM, read-out: inhibition of NO production",16.1%
same,inhibition at 400 µM,"[1]; 400 μM, read-out: inhibition rate of IL-6 production",23.3%
same,wet-to-dry weight ratio of rat lungs compared to the model group,[2],significant reduction
same,"expression levels of serum inflammatory cytokines (IL-1α, IL-1β, IL-6, IL-8, TNF-α) compared to the model group",[3],significantly decreased
same,Cmax,"[4]; iv, injection group (tail vein)",1030 ng/mL
same,AUC(0-inf),"[4]; plasma, iv, rat, injection group (tail vein)",1540 ng·h/mL
same,half-life,"[4]; plasma, iv, rat, injection group (tail vein), read-out: half-life (t½)",5.33 h
same,bioavailability,"[4]; plasma, po, rat, gavage group, read-out: AUC(0-∞) as % of the injection group",64.5%
same,AUC(0-t),"[4]; plasma, po, rat, gavage group, read-out: area-under-the-curve (AUC)(0-t)",876 ng·h/mL
same,half-life,"[4]; plasma, po, rat, gavage group, read-out: half-life t½",2.29 h
same,Cmax,"[4]; po, gavage group",302 ng/mL
same,Cmax as % of the injection group,"[4]; rat, gavage group",29.24%
same,half-life (t½) as % of the injection group,"[4]; rat, gavage group",43.01%
same,"hygroscopicity class (Chinese Pharmacopoeia 2020, 9103 guidelines)",[5]; 90% RH,no or almost no hygroscopicity (hygroscopic weight gain less than 0.2%)
same,maximum moisture adsorption / moisture absorption weight gain,"[5]; 90% RH, 25° C.",0.12%
same,moisture absorption weight gain percentage,"[5]; normal storage conditions (60% RH), 25° C.",less than 0.2%
same,solubility,"[6]; organic solvent or mixture, solvent: Acetonitrile",10620 ± 60 µg/mL
same,solubility,"[6]; organic solvent or mixture, solvent: Anhydrous Ethanol",17200 ± 270 µg/mL
same,solubility,"[6]; organic solvent or mixture, solvent: Ethyl Acetate",640 ± 10 µg/mL
same,solubility,"[6]; organic solvent or mixture, solvent: Isopropanol",7060 ± 120 µg/mL
same,solubility,"[6]; organic solvent or mixture, solvent: n-Butanol",8760 ± 20 µg/mL
same,solubility,"[6]; organic solvent or mixture, solvent: n-Octanol",3660 ± 10 µg/mL
same,solubility,[6]; solvent: Water,13440 ± 20 µg/mL
same,Solubility (in words),[6]; solvent: n-hexane,almost insoluble
same,"pathological changes, SYN group compared with low-dose SYN-DPI group",[7]; SYN 9 mg/kg gavage vs SYN-DPI 4.5 mg/kg inhalation,no significant difference in pathological changes
same,effective in vitro lung deposition rate,[8],2.25%
same,emptying rate,[8],90.98%
same,fine particle fraction (FPF),[8],2.69%
same,respirable fraction (RF),[8],41.26%
C[C@@H]1C[C@H]2[C@@H]3CCC4=CC(=O)C=C[C@]4(C)[C@@]3(F)[C@@H](O)C[C@]2(C)[C@@]1(O)C(=O)CO [Dex],"expression levels of serum inflammatory cytokines (IL-1α, IL-1β, IL-6, IL-8, TNF-α) compared to the model group",[3],significantly decreased
same,"pathological damage of rat lung tissue (HE, Masson)","[7]; Dex group, 3 mg/kg gavage",significantly alleviated
same,total protein content in BALF compared with the LPS group,[9],significantly improve alveolar interstitial space
